SMILES strings stand for the structures. Where a name gives a salt, the structure may show the parent alone. Read-outs that look alike come from different tables or passages of the source.

The target in this assay is T1, OR51E1 olfactory receptor (Homo sapiens, UniProt Q8TCB6).
T1 construct: expressed in transfected cells
T1 sequence (Q8TCB6 1-318): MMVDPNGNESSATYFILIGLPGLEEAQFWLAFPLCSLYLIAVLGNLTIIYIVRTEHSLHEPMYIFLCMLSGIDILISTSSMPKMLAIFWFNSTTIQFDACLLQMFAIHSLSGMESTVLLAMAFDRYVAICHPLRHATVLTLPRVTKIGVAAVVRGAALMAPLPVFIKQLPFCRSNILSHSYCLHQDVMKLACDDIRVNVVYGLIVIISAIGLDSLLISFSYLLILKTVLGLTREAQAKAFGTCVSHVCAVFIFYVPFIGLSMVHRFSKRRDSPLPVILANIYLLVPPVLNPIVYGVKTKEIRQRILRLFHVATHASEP
The experiment in a line: Inhibitory dose-response assay in a cell line expressing the butyric acid olfactory receptor OR51E1. Format: cell-based.

Where [1] appears, read: highly stringent screening conditions, cells treated with 67 μM butyric acid (EC94), read-out: calculated IC50, inhibitor of the butyric acid olfactory receptor OR51E1.

The IC50 is the point on the concentration scale where inhibition reaches its midpoint. In the case of `CC(=O)O[C@@H]1C(C)(C)CCC[C@]12CC=C(C)C[C@H]2C` (racemic) [Compound 1, (1RS,6RS,11RS)-2,2,9,11-tetramethylspiro[5.5]undec-8-en-1-yl acetate], the IC50 under setting [1] is 45.2 µM.
Take `CC(=O)O[C@H]([C@H]1CCCC[C@@H]1C)C(C)(C)C` (racemic) [Compound 14, (1RS)-2,2-dimethyl-1-[(1SR,2SR)-2-methylcyclohexyl]propyl acetate]: the IC50 under setting [1] was 68.6 µM and the IC50 (table, butyric acid at EC80, EC87, EC90, or EC100, read-out: IC50) was 170 µM.
Consider `CC(=O)OC1C(C)(C)CCCC12CC(C)=C(C)C2` (centres unmarked) [Compound 2, (2,3,9,9-tetramethylspiro[4.5]dec-2-en-10-yl) acetate], for which the IC50 under setting [1] is 18.6 µM.
Same read-out and setting: next, `CC(=O)OC1C(C)(C)CCCC12C(C)C=CCC2C` (centres unmarked) [Compound 3, (1,5,10,10-tetramethylspiro[5.5]undec-3-en-11-yl) acetate]: 4.74 µM.
The same measure, in the same setting: next, `CC1CC=CCC12CCCC(C)(C)C2OC=O` (centres unmarked) [Compound 5, (5,10,10-trimethylspiro[5.5]undec-2-en-11-yl) formate]: 46.9 µM.
On the same count and under the same terms, with `CC(=O)OC1C(C)(C)CCCC12CC=C(C)CC2C` (centres unmarked) [Compound 6, (3,5,10,10-tetramethylspiro[5.5]undec-2-en-11-yl) acetate] the figure was 78.1 µM.
For the compound `CC(=O)OC1C(C)(C)CCCC12CC=CC2` (centres unmarked) [Compound 7, (9,9-dimethylspiro[4.5]dec-2-en-10-yl) acetate], under setting [1], the IC50 is 84.3 µM.
Take `COC1C(C)(C)CCCC12CC=CC2` (centres unmarked) [Compound 8, 10-methoxy-9,9-dimethylspiro[4.5]dec-2-ene]: the IC50 under setting [1] was 193 µM.
On the same count and under the same terms, with `CC1CCCCC12CCCCC2O` (centres unmarked) [Compound 12, 11-methylspiro[5.5]undecan-5-ol] the figure was 805 µM; with `CC(=O)OC(C1C(C)C=C(C)CC1C)C(C)(C)C` (centres unmarked) [Compound 17, [2,2-dimethyl-1-(2,4,6-trimethylcyclohex-3-en-1-yl)propyl]acetate], 43.4 µM.

The values are drawn from patent publication US12180434B2, “Spiro compounds as malodor counteracting ingredients” (Firmenich SA, priority 2017, dated 2024).
